Consider 26 molecules from patent US20250074889A1, “Novel Aminobenzene Derivative Having Cancer Cell Growth Inhibitory Effect, and Preventive or Therapeutic Pharmaceutical Composition Containing Same as Active Ingredient” (Daewoong Pharmaceutical Co., Ltd., priority 2022, published 2025).

Assay [1] relates to transcription factor TEAD. The experiment in a line: Activity inhibition test of transcription factor TEAD (ONE-Glo luciferase, TEAD reporter-MCF7 cell line). The assay is classed as cell-based. The conditions noted are these: Homo sapiens; TEAD Reporter-MCF7 cells, 24 hours treatment, luciferase luminescence. The protocol: The transcription factor TEAD activity of the compounds prepared in Examples was measured by the ONE-Glo™ Luciferase assay (Promega, Catalog #E6110) method using the Hippo Pathway TEAD reporter-MCF7 recombinant cell line (BPS Bioscience, Catalog #60618).
Specifically, the TEAD Reporter-MCF7 cell line contains the firefly luciferase gene whose expression is regulated under the control of TEAD response elements in the MCF7, which is a human breast cancer cell line. In the cell line, a non-phosphorylated YAP/TAZ exists in the nucleus in a non-stressed condition, which continuously induces expression of the luciferase reporter.
TEAD Reporter-MCF7 cells were prepared in 100 μL of cell culture medium (MEM medium, 10% FBS, 1% P/S, 400 μg/mL Geneticin, 1% […], 1 mM NA pyruvate, 10 μg/mL Insulin) in a white clear bottom 96-well microplate. The prepared plate was incubated in a 5% CO2 incubator at 37° C. for 24 hours, and then the previously prepared compounds of Examples were finally treated at concentrations of 0.001, 0.01, 0.1, 1, and 10 µM, which were repeated three times for all treatment solutions. The plates treated with the compounds of Examples were incubated in a 5% CO2 incubator at 37° C. for 24 hours. 100 μL/well of the substrate aqueous solution containing luciferin was added to a white clear-bottom 96 well microplate, thereby initiating an enzyme reaction. The reaction was performed at room temperature for 5 minutes, and the luminescence (integration time 1000 ms) was measured using a Flexstation3 multi-mode microplate reader. In accordance with the instructions for the ONE-Glo™ Luciferase Assay, the luciferase enzyme activity, which represents the activity of the transcription factor TEAD, was measured by a chemiluminescence method, and the inhibitory activity of the compound according to the present invention was calculated. The results of each compound were analyzed using Microsoft Excel, and the IC50 values were calculated by GraphPad Prism software.

Assay [2] concerns NCI-H226 human mesothelioma cell line. The assay is described as follows: Cell growth inhibition test (CellTiter-Glo), NCI-H226. The assay is classed as cell-based. The conditions noted are these: NCI-H226 cells. As for the experimental part:
The cell growth for the compounds prepared in Examples was measured by CellTiter-Glo® Luminescent Cell Viability (Promega, Catalog #G7571) method using NCI-H226 (addexbio), NCI-H28 (Korea Cell Line Bank) and MSTO-211H (elabscience) human mesothelioma cell lines. This evaluation method is a method in which when luciferase enzyme is activated by ATP flowing out from living cells, it reacts with a luciferin substrate, and the enzyme activity at this time is measured to confirm cell viability.
Specifically, NCI-H226, NCI-H28, and MSTO-211H cells were prepared in 100 μL of cell culture medium (RPMI medium, 10% FBS, 1% P/S, 4.5 g/L D-Glucose, 2.383 g/L HEPES Buffer, L-Glutamine, 1.5 g/L Sodium Bicarbonate, 110 mg/L Sodium pyruvate) in a white clear bottom 96-well microplate. The prepared plate was incubated in a 5% CO2 incubator at 37° C. for 24 hours, and then the previously prepared compounds of Examples were finally treated at concentrations of 0.001, 0.01, 0.1, 1, and 10 μM, which was repeated three times for all treatment solutions. The plates treated with the compounds of Examples were incubated in a 5% CO2 incubator at 37° C. 100 μL/well of the substrate aqueous solution containing luciferin was added to a white clear-bottom 96 well microplate, thereby initiating an enzyme reaction. The reaction was performed at room temperature in the dark for 10 minutes, and the luminescence was measured using a Flexstation3 multi-mode microplate reader. In accordance with the instructions for the CellTiter-Glo™ Luminescednt Cell Viability, the luciferase enzyme activity, which represents the amount of ATP, was measured by a chemiluminescence method, and the inhibitory activity of the compounds according to the present invention was calculated. The results of each compound were analyzed using Microsoft Excel, and the IC50 values were calculated using GraphPad Prism software.
(In ATP-based viability assays light output follows the ATP content of the culture.)

Regarding `C=CC(=O)Nc1ccc(NC2CCCCC2)c(-c2ccccc2)c1` [Example 1, N-(6-(cyclohexylamino)-[1,1′-biphenyl]-3-yl)acrylamide], the figures for the IC50 in assay [1] and in assay [2] were 42 nM and 132 nM, respectively.

For `C=CC(=O)Nc1ccc(NC2CCCCC2)c(-c2ccccn2)c1` [Example 2, N-(4-(cyclohexylamino)-3-(pyridin-2-yl)phenyl)acrylamide], the IC50 is 12.3 nM in assay [1] and 46 nM in assay [2].

For the molecule `C=CC(=O)Nc1ccc(N[C@H]2CC[C@@H](C(F)(F)F)CC2)c(-c2ccccn2)c1` [Example 3, N-(3-(pyridin-2-yl)-4-((cis-4-(trifluoromethyl)cyclohexyl)amino)phenyl)acrylamide], the IC50 in assay [1] was 3.7 nM; in assay [2], over 10000 nM.

With `C=CC(=O)Nc1ccc(Nc2ncc(C(F)(F)F)cc2Cl)c(-c2ccccn2)c1` [Example 7, N-(4-((3-chloro-5-(trifluoromethyl)pyridin-2-yl)amino)-3-(pyridin-2-yl)phenyl)acrylamide], the IC50 in assay [1] was determined as 53.5 nM; in assay [2], 122 nM.

Take `C=CC(=O)Nc1ccc(Nc2cc(Cl)c(Cl)cn2)c(-c2ccccn2)c1` [Example 8, N-(4-((4,5-dichloropyridin-2-yl)amino)-3-(pyridin-2-yl)phenyl)acrylamide]: the IC50 amounted to 15.4 nM in assay [1] and 14 nM in assay [2].

As to `C=CC(=O)Nc1ccc(Nc2ncc(C(F)(F)F)cc2Cl)c(-c2cn(C)cn2)c1` [Example 9, N-(4-((3-chloro-5-(trifluoromethyl)pyridin-2-yl)amino)-3-(1-methyl-1H-imidazol-4-yl)phenyl)acrylamide], the IC50 in assay [1] amounted to 80 nM; in assay [2] it was 26 nM.

With `C=CC(=O)Nc1ccc(Nc2cc(Cl)c(Cl)cn2)c(-c2cn(C)cn2)c1` [Example 10, N-(4-((4,5-dichloropyridin-2-yl)amino)-3-(1-methyl-1H-imidazol-4-yl)phenyl)acrylamide], the IC50 in assay [1] worked out at 23 nM; in assay [2], 10 nM.

For the molecule `C=CC(=O)Nc1ccc(NCc2ccc(F)cc2)c(-c2ccccc2)c1` [Example 11, N-(6-((4-fluorobenzyl)amino)-[1,1′-biphenyl]-3-yl)acrylamide], the IC50 in assay [1] came out at 28.2 nM; in assay [2], 129 nM.

As to `C=CC(=O)Nc1ccc(NCc2ccc(F)cc2)c(-c2ccccn2)c1` [Example 12, N-(4-((4-fluorobenzyl)amino)-3-(pyridin-2-yl)phenyl)acrylamide], the IC50 in assay [1] was found to be 2.4 nM; in assay [2], 1250 nM.

Turning to `C=CC(=O)Nc1ccc(Nc2cc(Cl)c(Cl)cn2)c(-c2ccncn2)c1` [Example 16, N-(4-((4,5-dichloropyridin-2-yl)amino)-3-(pyrimidin-4-yl)phenyl)acrylamide], the IC50 in assay [1] was 69.1 nM; in assay [2], 148 nM.

Consider `C=CC(=O)Nc1ccc(NCCc2nccs2)c(/C=C/c2ccc(F)cc2)c1` [Example 23, (E)-N-(3-(4-fluorostyryl)-4-((2-(thiazol-2-yl)ethyl)amino)phenyl)acrylamide], for which the IC50 stood at 48 nM in assay [1] and 55 nM in assay [2].

As for `C=CC(=O)Nc1cnc(NCCc2nccs2)c(/C=C/c2ccc(F)cc2)c1` [Example 27, (E)-N-(5-(4-fluorostyryl)-6-((2-(thiazol-2-yl)ethyl)amino)pyridin-3-yl)acrylamide], the IC50 turned out to be 30 nM in assay [1] and 985 nM in assay [2].

Regarding `C=CS(=O)(=O)Nc1cnc(NCCc2nccs2)c(/C=C/c2ccc(F)cc2)c1` [Example 28], the IC50 in assay [1] worked out at 28.6 nM; in assay [2], 875 nM.

Regarding `C#Cc1ccc(Nc2ccc(NC(=O)C=C)cc2-c2ccn(C)n2)nc1` [Example 34, N-(4-((5-ethynylpyridin-2-yl)amino)-3-(1-methyl-1H-pyrazol-3-yl)phenyl)acrylamide], the results for the IC50 in assay [1] and in assay [2] were 5.7 nM and 31.4 nM, respectively.

Consider `C=CC(=O)Nc1cnc(Nc2ccc(C(F)(F)F)cc2)c(-c2cn(C)cn2)c1` [Example 41, N-(5-(1-methyl-1H-imidazol-4-yl)-6-((4-(trifluoromethyl)phenyl)amino)pyridin-3-yl)acrylamide], for which the values for the IC50 in assay [1] and in assay [2] were 10 nM and 6 nM, respectively.

Turning to `C=CC(=O)Nc1ccc(Nc2ccc(C(F)(F)F)cc2)c(-c2ccn(C)n2)c1` [Example 42, N-(3-(1-methyl-1H-pyrazol-3-yl)-4-((4-(trifluoromethyl)phenyl)amino)phenyl)acrylamide], the figures for the IC50 in assay [1] and in assay [2] were 7 nM and 4.7 nM, respectively.

Take `C=CC(=O)Nc1ccc(Nc2ccc(C(F)(F)F)c(Cl)c2)c(-c2cn(C)cn2)c1` [Example 43, N-(4-((3-chloro-4-(trifluoromethyl)phenyl)amino)-3-(1-methyl-1H-imidazol-4-yl)phenyl)acrylamide]: the IC50 in assay [1] was 33 nM; in assay [2], 7.4 nM.

For `C=CC(=O)Nc1ccc(Nc2ccc(C(F)(F)F)c(F)c2F)c(-c2cn(C)cn2)c1` [Example 44, N-(4-((2,3-difluoro-4-(trifluoromethyl)phenyl)amino)-3-(1-methyl-1H-imidazol-4-yl)phenyl)acrylamide], the IC50 in assay [1] is 8 nM; in assay [2], 3.9 nM.

Consider `C=CC(=O)Nc1ccc(Nc2ccc(OC(F)(F)F)cc2)c(-c2cn(C)cn2)c1` [Example 45, N-(3-(1-methyl-1H-imidazol-4-yl)-4-((4-(trifluoromethoxy)phenyl)amino)phenyl)acrylamide], for which the IC50 was determined as 113 nM in assay [1] and 33.8 nM in assay [2].

With `C=CC(=O)Nc1ccc(Nc2cc(F)c(C(F)(F)F)c(F)c2)c(-c2cn(C)cn2)c1` [Example 46, N-(4-((3,5-difluoro-4-(trifluoromethyl)phenyl)amino)-3-(1-methyl-1H-imidazol-4-yl)phenyl)acrylamide], the concentration for half-maximal inhibition (IC50) in assay [1] is 28 nM; in assay [2], 13.1 nM.

Take `C=CC(=O)Nc1ccc(Nc2ccc(Cl)cc2)c(-c2cn(C)cn2)c1` [Example 47, N-(4-((4-chlorophenyl)amino)-3-(1-methyl-1H-imidazol-4-yl)phenyl)acrylamide]: the IC50 is 3.9 nM in assay [1] and 3.3 nM in assay [2].

Consider `C=CC(=O)Nc1ccc(Nc2ccc(Br)c(C)n2)c(-c2cn(C)cn2)c1` [Example 48, N-(4-((5-bromo-6-methylpyridin-2-yl)amino)-3-(1-methyl-1H-imidazol-4-yl)phenyl)acrylamide], for which the half-inhibitory concentration (IC50) in assay [1] was found to be 45 nM; in assay [2], 10.3 nM.

Regarding `C=CC(=O)Nc1ccc(Nc2ccc(Cl)c(C)n2)c(-c2cn(C)cn2)c1` [Example 49, N-(4-((5-chloro-6-methylpyridin-2-yl)amino)-3-(1-methyl-1H-imidazol-4-yl)phenyl)acrylamide], the IC50 in assay [1] was determined as 258 nM; in assay [2], 18.8 nM.

`C=CC(=O)Nc1ccc(Nc2ccc(Cl)cn2)c(-c2cn(C)cn2)c1` [Example 50, N-(4-((5-chloropyridin-2-yl)amino)-3-(1-methyl-1H-imidazol-4-yl)phenyl)acrylamide]: the IC50 in assay [1] came out at 88 nM; in assay [2], 10.4 nM.

In the case of `C=CC(=O)Nc1ccc(Nc2cc(C(F)(F)F)ccn2)c(-c2ccn(C)n2)c1` [Example 54, N-(3-(1-methyl-1H-pyrazol-3-yl)-4-((4-(trifluoromethyl)pyridin-2-yl)amino)phenyl)acrylamide], the results for the IC50 in assay [1] and in assay [2] were 23.4 nM and 11.8 nM, respectively.

In the case of `C=CC(=O)Nc1ccc(Nc2ncc(C(F)(F)F)cc2F)c(-c2ccn(C)n2)c1` [Example 56, N-(4-((3-fluoro-5-(trifluoromethyl)pyridin-2-yl)amino)-3-(1-methyl-1H-pyrazol-3-yl)phenyl)acrylamide], the IC50 was 5 nM in assay [1] and 11 nM in assay [2].

A word on the IC50: it is the point on the concentration scale where inhibition reaches its midpoint. The low end stands for greater potency, the high end for weaker potency.
